System: 636577-100-R-J1-PDC complex spheroid viability
Assay: Anticancer human tumor 636577-100-R-J1-PDC patient-derived endometrial adenocarcinoma cell line growth inhibition [GQUAD]
Settings: for IC50: curve of first compound; for viability, T/C: stronger effect = lower value
Procedure, shortened: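 Viability of tumor cells grown as complex spheroids with endothelial and stromal cells, exposed to drug combinations. Top concentration at or near clinical Cmax (else 10 microM), diluted in half-log increments.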

[1] = second compound 0.0316 µM, first compound 0.0316 µM
[2] = second compound 0.0316 µM, first compound 0.1 µM
[3] = second compound 0.0316 µM, first compound 0.316 µM
[4] = second compound 0.0316 µM, first compound 1 µM
[5] = second compound 0.0316 µM, first compound 3.16 µM
[6] = second compound 0.0316 µM, first compound 10 µM
[7] = second compound 0.1 µM, first compound 0.0316 µM
[8] = second compound 0.1 µM, first compound 0.1 µM
[9] = second compound 0.1 µM, first compound 0.316 µM
[10] = second compound 0.1 µM, first compound 1 µM
[11] = second compound 0.1 µM, first compound 3.16 µM
[12] = second compound 0.1 µM, first compound 10 µM
[13] = second compound 0.316 µM, first compound 0.0316 µM
[14] = second compound 0.316 µM, first compound 0.1 µM
[15] = second compound 0.316 µM, first compound 0.316 µM
[16] = second compound 0.316 µM, first compound 1 µM
[17] = second compound 0.316 µM, first compound 3.16 µM
[18] = second compound 0.316 µM, first compound 10 µM
[19] = second compound 1 µM, first compound 0.0316 µM
[20] = second compound 1 µM, first compound 0.1 µM
[21] = second compound 1 µM, first compound 0.316 µM
[22] = second compound 1 µM, first compound 1 µM
[23] = second compound 1 µM, first compound 3.16 µM
[24] = second compound 1 µM, first compound 10 µM
[25] = second compound 3.16 µM, first compound 0.0316 µM
[26] = second compound 3.16 µM, first compound 0.1 µM
[27] = second compound 3.16 µM, first compound 0.316 µM
[28] = second compound 3.16 µM, first compound 1 µM
[29] = second compound 3.16 µM, first compound 3.16 µM
[30] = second compound 3.16 µM, first compound 10 µM
[31] = second compound 10 µM, first compound 0.0316 µM
[32] = second compound 10 µM, first compound 0.1 µM
[33] = second compound 10 µM, first compound 0.316 µM
[34] = second compound 10 µM, first compound 1 µM
[35] = second compound 10 µM, first compound 3.16 µM
[36] = second compound 10 µM, first compound 10 µM
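Further: viability read after seven days of drug exposure.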
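Wherever viability, T/C is given: luminescence signal used as a proxy for viable cells; 100% = DMSO vehicle control wells.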

Question: Which IC50 (second compound 0.0316 µM) does the source give for `CC(=O)O[C@H]1C(=O)[C@@]2(C)[C@H]([C@H](OC(=O)c3ccccc3)[C@]3(O)C[C@H](OC(=O)[C@H](O)[C@@H](NC(=O)c4ccccc4)c4ccccc4)C(C)=C1C3(C)C)[C@]1(OC(C)=O)CO[C@@H]1C[C@@H]2O` + Cc1cnc(CNC(=O)c2c(=O)c3ccc(N4CCCN(C)CC4)nc3n3c2sc2ccccc23)cn1 here?
Answer: The IC50 was under 31.6 nM.

Question: What about the IC50 (second compound 0.1 µM) of the same compound?
Answer: Its IC50 is under 31.6 nM.

Question: What about the IC50 (second compound 0.316 µM) of the same compound?
Answer: Its IC50 is under 31.6 nM.

Question: And the IC50 (second compound 1 µM)?
Answer: The IC50 was under 31.6 nM.

Question: And the IC50 (second compound 3.16 µM)?
Answer: Its IC50 is under 31.6 nM.

Question: And the IC50 (second compound 10 µM)?
Answer: The IC50 was under 31.6 nM.

Question: And the viability, T/C [1]?
Answer: Its viability, T/C is 22.4%.

Question: What about the viability, T/C [2] of the same compound?
Answer: The viability, T/C was 13.4%.

Question: What about the viability, T/C [3] of the same compound?
Answer: The viability, T/C was 13%.

Question: What about the viability, T/C [4] of the same compound?
Answer: Its viability, T/C is 10.6%.

Question: And the viability, T/C [5]?
Answer: The viability, T/C was 9.54%.

Question: And the viability, T/C [6]?
Answer: Its viability, T/C is 9.18%.

Question: And the viability, T/C [7]?
Answer: The viability, T/C was 23.1%.

Question: And the viability, T/C [8]?
Answer: The viability, T/C was 16.2%.

Question: And the viability, T/C [9]?
Answer: Its viability, T/C is 14.3%.

Question: And the viability, T/C [10]?
Answer: Its viability, T/C is 10.2%.

Question: And the viability, T/C [11]?
Answer: Its viability, T/C is 12.1%.

Question: What about the viability, T/C [12] of the same compound?
Answer: Its viability, T/C is 10.1%.

Question: What about the viability, T/C [13] of the same compound?
Answer: Its viability, T/C is 23.6%.

Question: And the viability, T/C [14]?
Answer: Its viability, T/C is 18%.

Question: What about the viability, T/C [15] of the same compound?
Answer: The viability, T/C was 13.9%.

Question: What about the viability, T/C [16] of the same compound?
Answer: Its viability, T/C is 12.5%.

Question: What about the viability, T/C [17] of the same compound?
Answer: The viability, T/C was 11.2%.

Question: What about the viability, T/C [18] of the same compound?
Answer: Its viability, T/C is 10.7%.

Question: What about the viability, T/C [19] of the same compound?
Answer: The viability, T/C was 21.2%.

Question: What about the viability, T/C [20] of the same compound?
Answer: Its viability, T/C is 16.5%.

Question: What about the viability, T/C [21] of the same compound?
Answer: The viability, T/C was 15%.

Question: What about the viability, T/C [22] of the same compound?
Answer: The viability, T/C was 14.2%.

Question: What about the viability, T/C [23] of the same compound?
Answer: Its viability, T/C is 13.2%.

Question: What about the viability, T/C [24] of the same compound?
Answer: The viability, T/C was 10.7%.

Question: What about the viability, T/C [25] of the same compound?
Answer: The viability, T/C was 19.6%.

Question: And the viability, T/C [26]?
Answer: The viability, T/C was 18.2%.

Question: And the viability, T/C [27]?
Answer: Its viability, T/C is 17.2%.

Question: And the viability, T/C [28]?
Answer: The viability, T/C was 14.3%.

Question: What about the viability, T/C [29] of the same compound?
Answer: The viability, T/C was 15.7%.

Question: What about the viability, T/C [30] of the same compound?
Answer: Its viability, T/C is 14.3%.

Question: What about the viability, T/C [31] of the same compound?
Answer: Its viability, T/C is 18.1%.

Question: What about the viability, T/C [32] of the same compound?
Answer: The viability, T/C was 18.5%.

Question: What about the viability, T/C [33] of the same compound?
Answer: Its viability, T/C is 17.8%.

Question: And the viability, T/C [34]?
Answer: The viability, T/C was 15.3%.

Question: And the viability, T/C [35]?
Answer: Its viability, T/C is 15.2%.

Question: And the viability, T/C [36]?
Answer: Its viability, T/C is 15.3%.

Question: What does the source list for `O=C(c1cc(Cc2n[nH]c(=O)c3ccccc23)ccc1F)N1CCN(C(=O)C2CC2)CC1` + CN(C)c1ccc(Nc2c3ccc(NC(=O)CCN4CCCC4)cc3nc3cc(NC(=O)CCN4CCCC4)ccc23)cc1?
Answer: IC50 (second compound 0.0316 µM): 1580 nM; IC50 (second compound 0.1 µM): 1450 nM; IC50 (second compound 0.316 µM): 3730 nM; IC50 (second compound 1 µM): 1360 nM; IC50 (second compound 3.16 µM): < 31.6 nM; IC50 (second compound 10 µM): < 31.6 nM; viability, T/C [1]: 93.1%; viability, T/C [2]: 54.9%; viability, T/C [3]: 71%; viability, T/C [4]: 63.8%; viability, T/C [5]: 37.7%; viability, T/C [6]: 33.2%; viability, T/C [7]: 69.7%; viability, T/C [8]: 54.2%; viability, T/C [9]: 52.1%; viability, T/C [10]: 57.7%; viability, T/C [11]: 46.2%; viability, T/C [12]: 31.7%; viability, T/C [13]: 50.3%; viability, T/C [14]: 53.6%; viability, T/C [15]: 64.3%; viability, T/C [16]: 61.5%; viability, T/C [17]: 50.1%; viability, T/C [18]: 34.1%; viability, T/C [19]: 63.7%; viability, T/C [20]: 62.4%; viability, T/C [21]: 60.5%; viability, T/C [22]: 54.3%; viability, T/C [23]: 38.9%; viability, T/C [24]: 28.8%; viability, T/C [25]: 29.2%; viability, T/C [26]: 40.2%; viability, T/C [27]: 34.2%; viability, T/C [28]: 30.8%; viability, T/C [29]: 25.6%; viability, T/C [30]: 21.1%; viability, T/C [31]: 5.92%; viability, T/C [32]: 4.61%; viability, T/C [33]: 4.06%; viability, T/C [34]: 5.25%; viability, T/C [35]: 6.06%; viability, T/C [36]: 4.36%

From PubChem BioAssay AID2060504 (Molecular Pharmacology Branch, DTP, NCI, 2025)
